Assay results taken from ChEMBL document CHEMBL1201862, “PubChem BioAssay data set” (2004).
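Interpolation was linear, between the two tested concentrations surrounding the appropriate level; five concentrations were tested over 48 hours in 96-well plates. At the GI50, growth is halved.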 Activity calls are given as the source filed them. Cut-off read from the data, not from the text of the source: active = GI50 up to about 1.1 µM and inactive = higher.

Legend:
Assay in all cases: growth of human tumour cells (NCI), 48 h
HL-60 = tested on: HL-60
786-0 = tested on: 786-0
UACC-257 = tested on: UACC-257
KM12 = tested on: KM12
NCI-H23 = tested on: NCI-H23
UACC-62 = tested on: UACC-62
HT-29 = tested on: HT-29
SK-MEL-28 = tested on: SK-MEL-28
SF-539 = tested on: SF-539
ACHN = tested on: ACHN
DU-145 = tested on: DU-145
Hs-578T = tested on: Hs-578T
SK-OV-3 = tested on: SK-OV-3
TK-10 = tested on: TK-10
SW-620 = tested on: SW-620
SN12C = tested on: SN12C
BT-549 = tested on: BT-549
SNB-75 = tested on: SNB-75
MDA-MB-231 = tested on: MDA-MB-231

Compound	GI50 (HL-60)	GI50 (786-0)	GI50 (UACC-257)	GI50 (KM12)	GI50 (NCI-H23)	GI50 (UACC-62)	GI50 (HT-29)	GI50 (SK-MEL-28)	GI50 (SF-539)	GI50 (ACHN)	GI50 (DU-145)	GI50 (Hs-578T)	GI50 (SK-OV-3)	GI50 (TK-10)	GI50 (SW-620)	GI50 (SN12C)	GI50 (BT-549)	GI50 (SNB-75)	GI50 (MDA-MB-231)
O=C1COc2cc(N3CCN(c4cccc(C(F)(F)F)c4)CC3)ccc2N1	> 100 µM (inactive)	> 100 µM (inactive)	> 100 µM (inactive)	> 100 µM (inactive)	> 100 µM (inactive)	> 100 µM (inactive)	> 100 µM (inactive)	> 100 µM (inactive)	> 100 µM (inactive)	> 100 µM (inactive)	> 100 µM (inactive)	> 100 µM (inactive)	> 100 µM (inactive)	> 100 µM (inactive)	> 100 µM (inactive)	> 100 µM (inactive)	> 100 µM (inactive)	> 100 µM (inactive)	> 100 µM (inactive)
CCCc1[nH]nc(C(N)=O)c1/N=N/N(C)C	8.34 µM (inactive)	65.5 µM (inactive)	> 100 µM (inactive)	37.1 µM (inactive)	75.3 µM (inactive)	36.9 µM (inactive)	86.3 µM (inactive)	> 100 µM (inactive)	48.4 µM (inactive)	44.2 µM (inactive)	49.5 µM (inactive)	50 µM (inactive)	59.7 µM (inactive)	67.5 µM (inactive)	63.7 µM (inactive)	48.3 µM (inactive)	24.3 µM (inactive)	16.1 µM (inactive)	> 100 µM (inactive)
CN(C)CC1CCC/C(=C\c2ccc(Cl)cc2)C1=O (centres undefined)	1.37 µM (inactive)	1.68 µM (inactive)	4.91 µM (inactive)	1.69 µM (inactive)	8.02 µM (inactive)	2.08 µM (inactive)	9.27 µM (inactive)	3.46 µM (inactive)	10.6 µM (inactive)	2.57 µM (inactive)	15.5 µM (inactive)	2.92 µM (inactive)	10.9 µM (inactive)	3.9 µM (inactive)	1.93 µM (inactive)	3.33 µM (inactive)	1.73 µM (inactive)	3.25 µM (inactive)	3.05 µM (inactive)
COc1ccc(NC2C(=O)C3(C)CCC2C3(C)C)cc1 (centres undefined)	29.3 µM (inactive)	> 100 µM (inactive)	49 µM (inactive)	> 100 µM (inactive)	> 100 µM (inactive)	> 100 µM (inactive)	40.4 µM (inactive)	> 100 µM (inactive)	> 100 µM (inactive)	> 100 µM (inactive)	> 100 µM (inactive)	> 100 µM (inactive)	> 100 µM (inactive)	> 100 µM (inactive)	> 100 µM (inactive)	> 100 µM (inactive)	69 µM (inactive)	> 100 µM (inactive)	> 100 µM (inactive)
CC(=O)O[C@H]1C[C@]2(C)C(CCC3O[C@@]32C)[C@@]2(CC(c3ccoc3)OC2O)[C@@H]1C (some centres undefined)	21.6 µM (inactive)	> 100 µM (inactive)	63.4 µM (inactive)	78.3 µM (inactive)	72.3 µM (inactive)	37.6 µM (inactive)	75.9 µM (inactive)	> 100 µM (inactive)	> 100 µM (inactive)	> 100 µM (inactive)	> 100 µM (inactive)	> 100 µM (inactive)	> 100 µM (inactive)	> 100 µM (inactive)	> 100 µM (inactive)	> 100 µM (inactive)	40 µM (inactive)	> 100 µM (inactive)	> 100 µM (inactive)
CN1CC2=C(N=C(S)NC2c2ccccc2)/C(=C/c2ccccc2)C1 (centres undefined)	> 10 µM (inactive)	> 100 µM (inactive)	91.6 µM (inactive)	25.6 µM (inactive)	56.2 µM (inactive)	28.5 µM (inactive)	27 µM (inactive)	27.6 µM (inactive)	83.9 µM (inactive)	52.6 µM (inactive)	> 100 µM (inactive)	40.6 µM (inactive)	22.2 µM (inactive)	26 µM (inactive)	71.1 µM (inactive)	51.8 µM (inactive)	> 100 µM (inactive)	48 µM (inactive)	> 10 µM (inactive)
Cc1cn2c(/C=C3/C(=O)Nc4ccccc43)c(-c3ccccc3)nc2s1	> 100 µM (inactive)	17.2 µM (inactive)	> 100 µM (inactive)	> 100 µM (inactive)	48.4 µM (inactive)	67.6 µM (inactive)	> 100 µM (inactive)	> 100 µM (inactive)	19.2 µM (inactive)	32.2 µM (inactive)	78.3 µM (inactive)	27.7 µM (inactive)	30.1 µM (inactive)	22.4 µM (inactive)	64.4 µM (inactive)	93.1 µM (inactive)	32.9 µM (inactive)	25.8 µM (inactive)	18.7 µM (inactive)
COC1=C(C)C(=O)c2c(c(COC(N)=O)c3n2CC2C3N2C)C1=O (centres undefined)	0.0296 µM (active)	< 0.01 µM (active)	< 0.0107 µM (active)	< 0.0166 µM (active)	< 0.0108 µM (active)	< 0.0114 µM (active)	< 0.01 µM (active)	0.0502 µM (active)	0.0112 µM (active)	< 0.01 µM (active)	< 0.01 µM (active)	0.16 µM (active)	< 0.0156 µM (active)	0.0117 µM (active)	< 0.0113 µM (active)	0.0132 µM (active)	0.0222 µM (active)	< 0.0179 µM (active)	0.168 µM (active)
Cn1c(=O)sc2cc(C(=S)N3CCN(c4ccccc4)CC3)ccc21	33.6 µM (inactive)	44 µM (inactive)	> 100 µM (inactive)	> 100 µM (inactive)	34.1 µM (inactive)	31.8 µM (inactive)	> 100 µM (inactive)	97.1 µM (inactive)	24.4 µM (inactive)	70.3 µM (inactive)	> 100 µM (inactive)	55.8 µM (inactive)	32.3 µM (inactive)	71.9 µM (inactive)	> 100 µM (inactive)	50.6 µM (inactive)	60.7 µM (inactive)	28.7 µM (inactive)	27.6 µM (inactive)
c1ccc2c(c1)NC1(N3CCCCC3)CCCCC21 (centres undefined)	29.6 µM (inactive)	61 µM (inactive)	47.3 µM (inactive)	32.3 µM (inactive)	50.5 µM (inactive)	48.9 µM (inactive)	39.4 µM (inactive)	49.3 µM (inactive)	> 100 µM (inactive)	47.1 µM (inactive)	57.9 µM (inactive)	47.9 µM (inactive)	> 100 µM (inactive)	> 100 µM (inactive)	41.2 µM (inactive)	35.4 µM (inactive)	53 µM (inactive)	22.5 µM (inactive)	34.2 µM (inactive)
Cc1cn(C2CCN(CC3COC(C)(C)O3)O2)c(=O)[nH]c1=O (centres undefined)	> 100 µM (inactive)	> 100 µM (inactive)	> 100 µM (inactive)	> 100 µM (inactive)	> 100 µM (inactive)	> 100 µM (inactive)	> 100 µM (inactive)	> 100 µM (inactive)	> 100 µM (inactive)	> 100 µM (inactive)	> 100 µM (inactive)	> 100 µM (inactive)	> 100 µM (inactive)	> 100 µM (inactive)	> 100 µM (inactive)	> 100 µM (inactive)	> 100 µM (inactive)	> 100 µM (inactive)	> 100 µM (inactive)
